Assay results published in US11944623B2, “Modulators of Kv3 channels to treat pain” (Autifony Therapeutics Limited, priority 2015, dated 2024).

Test system: rat model of persistent inflammatory pain
Experiment: Persistent inflammatory pain model (intraplantar FCA): paw withdrawal to mechanical pressure and cold (10° C.), general observations
Assay type: in vivo
Method: The efficacy of Compounds 1, 2, 3 and 4 was investigated using rat models of neuropathic and/or persistent inflammatory pain.
Subjects comprised male, Wistar Hanover rats, 6 animals per group (225±2 g for Compound 1 studies and Compound 2 studies; 214±1 g for Compound 3 studies; 236±1 g for Compound 4 studies).
Vehicle (12% Captisol®; 0.5% w/v HPMC and 0.1% w/v Tween-80; 5 ml/kg via the intraperitoneal route) was prepared using autoclaved deionized water not more than one week prior to use.
The details of the studies performed are outlined in Table 1.
The control for the neuropathic pain model was lamotrigine, administered at 30 mg/kg via oral delivery. The control for the inflammatory pain model was diclofenac, administered at 30 mg/kg via oral delivery. Statistical analysis was performed using one-way ANOVA, and comparisons were performed with time-matched vehicle group using Tukey's HSD test wherein * p<0.05, ** p<0.01, *** p<0.001.
Treatment groups were randomised and blinded. Groups of 6 rats were used.
Mechanical hyperalgesia was examined in a model of persistent inflammatory pain. The hyperalgesia was induced by an intraplantar injection (25 μl) of Freund's Complete Adjuvant (FCA) into the left hind paw.
To assess the effect of the test compound, paw withdrawal thresholds or latencies were measured on both the ipsilateral (FCA-injected) and contralateral (non-injected) paws, prior to (naïve) and 24 hours following FCA injection (predose), and then at 1, 3, 6 and 24 hours after drug or vehicle administration.
Mechanical hyperalgesia was examined in a model of neuropathic pain by measuring paw withdrawal thresholds (PWT) to increasing mechanical force applied to the dorsal surface of the rat paw using an Analgesymeter (Ugo-Basile, Milan) equipped with a wedge-shaped probe (area 1.75 mm^2). Cut-off was set at 250 g and the end-point was taken as withdrawal of the hind paw. Both ipsilateral and contralateral paw withdrawal readings were taken.
Cold sensitivity was assessed using a commercially available cold-plate (Ugo Basile, Milan). The cold plate was allowed to stabilize for 5 minutes at the set temperature prior to testing. Paw withdrawal latencies (PWL) were determined with the cold-plate set at 10° C. The animals were lightly restrained and each hind paw in turn placed onto the surface of the cold-plate. The end point was taken as the withdrawal of the paw and recorded as the withdrawal latency for the ipsilateral and the contralateral paw. A maximum cut-off of 30 seconds was used for each paw.
In addition to behavioural pain readings, each rat was observed throughout the study for changes in general behaviour.
Data were expressed as withdrawal threshold (g) or withdrawal latencies (s) and percentage reversals calculated according to the following formula: […]
Statistical analysis was carried out on withdrawal threshold readings using ANOVA with repeated measures followed by Tukey's HSD test. The level for statistical significance was set as p<0.05.

[1] = 30 mg/kg i.p., time not stated (peak reversal at 1-3 h post-dose)

CC[C@H]1NC(=O)N(c2ccc(Oc3ccc(C)c4c3C3(CC3)CO4)nc2)C1=O [Compound 4, (5R)-5-ethyl-3-[6-(7-methylspiro[2H-benzofuran-3,1′-cyclopropane]-4-yl)oxy-3-pyridyl]imidazolidine-2,4-dione]
reversal of cold sensitivity [1]: 55% | reversal of mechanical sensitivity [1]: 50% | activity at 6 hours post-dose (6 hours post-dose): significant activity still evident | changes in contralateral paw withdrawals/latencies (all doses): no significant changes | behavioural changes in the rats (general observations) (rat, in vivo): no behavioural changes noted
